In US20150104868A1, “Methods of Maintaining and Improving Biological Cell Function and Activity” (GARGILL INCORPORATED, priority 2012, published 2015):

Tested on: CRL 1730 HUVECs
Assay: Microarray transcriptomics of HUVEC (HGERT/HG, HG/NG)
Assay type: cell-based, human
[1] = Breast cancer, Cysteine/gluathione
[2] = Breast cancer, Heat shock protein
[3] = Breast cancer, ILK signaling (integrin linked kinase)
[4] = Breast cancer, Mitotic cell cycle
[5] = Breast cancer, One carbon metabolism
[6] = Breast cancer, Peptidase activity
[7] = Breast cancer, Plasminogen activators
[8] = Breast cancer, Reactive oxygen species
[9] = Breast cancer, Tyrosine phosphatase activity
[10] = HUVEC, 5 mM ERT + 30 mM glucose vs 30 mM glucose

## OC[C@@H](O)[C@@H](O)CO [ERT, meso-1,2,3,4-tetrahydroxybutane]
Breast cancer, ATP metabolism
  HGERT/HG TRIT1 (TRNA isopentenyltransferase 1): 0.98 Ω
  HGERT/HG VPS4B (Vacuolar protein sorting 4 homolog B (S. cerevisiae)): 0.99 Ω
  HGERT/HG YME1L1 (YME1-like 1 (S. cerevisiae)): 1.00 Ω
Breast cancer, Actin binding
  HGERT/HG CORO1A (Coronin, actin binding protein, 1A): 0.94 Ω
  HGERT/HG PLEC1 (Plectin): Ψ 1.03
Breast cancer, Alpha-catenin binding
  HGERT/HG JUP (Junction plakoglobin): Ψ 1.01
[1]
  HGERT/HG AHCYL1 (Adenosylhomocysteinase-like 1): Ψ 1.01
  HGERT/HG ATIC (5-aminoimidazole-4-carboxamide ribonucleotide formyltransferase/IMP cyclohydroiase): 0.99 Ω
  HGERT/HG ESD (Esterase D): 0.99 Ω
Breast cancer, Deoxycytidine metabolism
  HGERT/HG DCK (Deoxycytidine kinase): 0.98 Ω
Breast cancer, Focal adhesion
  HGERT/HG COL4A6 (Collagen, type IV, alpha 6): Ψ 1.03
[2]
  HGERT/HG DNAJC8 (DnaJ (Hsp40) homolog, subfamily C, member 8): 0.99 Ω
  HGERT/HG DNAJC11 (DnaJ (Hsp40) homolog, subfamily C, member 11): Ψ 1.01
Breast cancer, Hypoxia response
  HGERT/HG ACTN1: 0.99 Ω
[3]
  HGERT/HG ACTN1 (Actinin, alpha 1): Ψ 1.01
  HGERT/HG FBLIM1 (Flamin binding LIM protein 1): Ψ 1.02
  HGERT/HG NCK2 (NCK adaptor protein 2): Ψ 1.01
  HGERT/HG PXN (Paxillin): Ψ 1.01
  HGERT/HG RHOB (Ras homolog gene family, member B): Ψ 1.02
  HGERT/HG RHOJ (Ras homolog gene family, member J): Ψ 1.02
  HGERT/HG RSU1 (Ras suppressor protein 1): 0.99 Ω
  HGERT/HG VIM (Vimentin): 1.00 Ω
Breast cancer, Insulin binding
  HGERT/HG ACTN1 (Actinin, alpha 1): Ψ 1.01
  HGERT/HG FBLM1 (Filamin binding LIM protein 1): Ψ 1.02
  HGERT/HG NCK2 (NCK adaptor protein 2): Ψ 1.01
  HGERT/HG PIK3R1 (Phosphoinositide-3 kinase, regulatory subunit 1 (alpha)): Ψ 1.03
  HGERT/HG PXN (Paxillin): Ψ 1.01
  HGERT/HG RHOB (Ras homolog gene family, member B): Ψ 1.02
  HGERT/HG RHOJ (Ras homolog gene family, member J): Ψ 1.02
  HGERT/HG RSU1 (Ras suppressor protein 1): 0.99 Ω
  HGERT/HG VIM (Vimentin): 1.00 Ω
  HGERT/HG WDRG (WD repeat domain 6): Ψ 1.02
[4]
  HGERT/HG AZI1 (S-azacytidine induced 1): Ψ 1.02
  HGERT/HG CEP135 (Centrosomal protein 135kDa): Ψ 1.01
  HGERT/HG CEP250 (Centrosomal protein 250kDa): 0.99 Ω
  HGERT/HG FGFR1OP (FGFR1 oncogene partner): 0.99 Ω
  HGERT/HG MPHOSPH6 (M-phase phosphoprotein G): 0.99 Ω
  HGERT/HG UBA3 (Ubiquitin-like modifier activating enzyme 3): 0.99 Ω
[5]
  HGERT/HG AHCYL1 (Adenosylhomocysteinase-like 1): Ψ 1.01
  HGERT/HG ATIC (5-aminoimdazole-4-carboxamide ribonucleotide formyltransferase/IMP cyclohydroiase): 0.99 Ω
  HGERT/HG ESD (Esterase D): 0.99 Ω
Breast cancer, Osteoclast differentiation
  HGERT/HG OSTM1 (Osteopetrosis associated transmembrane protein 1): 0.99 Ω
Breast cancer, PI3 kinase binding
  HGERT/HG CORO1A (Coronin, actin binding protein, 1A): 0.94 Ω
[6]
  HGERT/HG ATXN3 (Ataxin 3): 0.99 Ω
  HGERT/HG OTUD5 (OTU domain containing 5): Ψ 1.01
  HGERT/HG SENP3 (SUMO1/sentrin/SMT3 sepcific peptidase 3): Ψ 1.01
  HGERT/HG WFDC12 (WAP four-disulfide core domain 12): 0.96 Ω
[7]
  HGERT/HG BAD2 (Bromodomain containing 2): Ψ 1.02
  HGERT/HG RHOJ (Ras homolog gene family, member J): Ψ 1.02
[8]
  HGERT/HG COX8A (Cytochrome c oxidase subunit VIIIA (ubiquitous)): 0.99 Ω
  HGERT/HG JUP (Junction plankoglobin): Ψ 1.01
  HGERT/HG MPHOSPH6 (M-phase phosphoprotein 6): 0.99 Ω
  HGERT/HG SDHD (Succinate dehydrogenase complex, subunit D, integral membrane protein): 0.98 Ω
  HGERT/HG SMOX (Spermine oxidase): 0.99 Ω
  HGERT/HG SOS1 (Son of sevenless homolog 1 (Drosophila)): Ψ 1.06
  HGERT/HG TCF12 (Transcription factor 12): 0.99 Ω
  HGERT/HG TGM2 (Transglutaminase 2 (C polypeptide, protein-glutamine-gamma-glutamyltransferase)): Ψ 1.01
Breast cancer, Receptor activity
  HGERT/HG PAQR3 (Progestin and adipoQ receptor family member III): 0.98 Ω
Breast cancer, SMAD binding
  HGERT/HG EID2 (EP300 interacting inhibitor of differentiation 2): 0.99 Ω
Breast cancer, Steroid hormone receptor activity
  HGERT/HG PGRMC2 (Progesterone receptor membrane component 2): 0.98 Ω
Breast cancer, Sulfotransferase acfivity
  HGERT/HG HS3ST1 (Heparan sulfate (glucosamine) 3-O-sulfotransferase 1): Ψ 1.03
[9]
  HGERT/HG DUSP23 (Dual specificity phosphatase 23): 0.99 Ω
  HGERT/HG PTPLAD1 (Protein tyrosine phosphatase-like A domain containing 1): Ψ 1.01
HUVEC, HG conditions
  transcriptomic changes, HG/NG vs HGERT/HG: reverses many of the transciptomic changes observed in its absence
[10]
  HGERT/HG transcript ABCB10: 0.98 Ω
  HGERT/HG transcript ACTL6A: 0.98 Ω
  HGERT/HG transcript ACTN1: Ψ 1.01
  HGERT/HG transcript ACTR5: Ψ 1.01
  HGERT/HG transcript AGTPBP1: 0.98
  HGERT/HG transcript AHCYL1: Ψ 1.01
  HGERT/HG transcript ANKZF1: 0.99
  HGERT/HG transcript ATAD1: 0.99 Ω
  HGERT/HG transcript ATAD3B: Ψ 1.01
  HGERT/HG transcript ATIC: 0.99 Ω
  HGERT/HG transcript ATP2C1: 0.99 Ω
  HGERT/HG transcript ATP5E: 0.99 Ω
  HGERT/HG transcript ATP5O: 1.00 Ω
  HGERT/HG transcript ATP13A1: Ψ 1.02
  HGERT/HG transcript AZI1: Ψ 1.02
  HGERT/HG transcript BACE1: Ψ 1.02
  HGERT/HG transcript BBS10: 0.98 Ω
  HGERT/HG transcript BRD2: Ψ 1.02
  HGERT/HG transcript Bcl2l12: Ψ 1.02
  HGERT/HG transcript C3orf26: 0.99 Ω
  HGERT/HG transcript C6orf66: 0.99 Ω
  HGERT/HG transcript C20orf7: 0.99 Ω
  HGERT/HG transcript CARS: 1.00 Ω
  HGERT/HG transcript CENPK: 0.97 Ω
  HGERT/HG transcript CEP135: Ψ 1.01
  HGERT/HG transcript CEP250: 0.99
  HGERT/HG transcript CHMP7: 0.99
  HGERT/HG transcript CIB1: 1.00 Ω
  HGERT/HG transcript CKAPS: Ψ 1.01
  HGERT/HG transcript CNIH2: 0.99
  HGERT/HG transcript COG6: 0.99
  HGERT/HG transcript COL4A6: Ψ 1.03
  HGERT/HG transcript CORO1A: 0.94 Ω
  HGERT/HG transcript COX8A: 0.99 Ω
  HGERT/HG transcript CSNK1G1: Ψ 1.02
